Measured values: patent publication US7531669B2, “Methods for treating neural disorders and conditions, and compounds useful therefor” (The Salk Institute for Biological Studies, priority 2003, dated 2009)

Columns and labels:
[1] = Plasma concentration after a single oral dose in mice; type: in vivo, BALB/c mice; settings: for Plasma 11-001 concentration: 400 mg/kg single oral dose
Method: The pharmacokinetic properties of compound 11-001 (see FIG. 14) after a single oral dose were studied in 10-week old female BALB/c mice. Compound 11-001 was emulsified in 2.5% carboxymethyl cellulose at a concentration of 20 mg/ml and administered by gavage at a dosage of 400 mg/kg body weight (administered volume was 20 ml/kg body weight). The mice were then sacrificed at various intervals after administration (0, 1 hr, 2 hr, 4 hr, and 6 hr). Plasma was obtained from blood (mixed with K3EDTA to prevent coagulation) by centrifugation at 4,300 g for 10 min, extracted twice with ethyl acetate/propanol (9:1, v/v). The extracts were centrifuged at 5,000 g for 10 min to form aqueous/organic layers. The organic layer containing compound 11-001 was centrifuged at 20,000 g for 10 min to sediment particles. The extraction recovery from plasma was approximately 90%. Thirty μl thereof were analyzed by HPLC equipped with a C18 reversed phase column and compound 11-001 was detected at 330 nm. The elution solvent system was 50% acetonitrile, 50% water and 1 g/L trifluoroacetic acid with a flow rate of 1 ml/min.

[2] = Brain content after a single oral dose in mice; type: in vivo, BALB/c mice; settings: for Brain 11-001 content: 400 mg/kg single oral dose
Method: To study the distribution of compound 11-001 in brain at various time intervals (0, 1 hr, 2 hr, 4 hr, and 6 hr) after gavage (400 mg/kg), the mice were anesthetized with cloral hydrate and perfused through the heart with phosphate buffered saline (PBS) to remove blood in the brain. The mice were then decapitated, the brains removed, and quickly frozen and stored at −80° C. before further analysis. To measure the level of compound 11-001 in the brain, weighed brain pieces were homogenized by sonication in 3 volumes of PBS. The homogenates were then extracted and measured by HPLC as described above.

HT22 cells = test: HT22 cell survival after glutamate in the CREB phosphorylation experiment; type: cell-based; settings: 1 μM compound; all cells died in its absence
Method: CREB phosphorylation in response to oxidative stress was evaluated in the presence of invention compounds. Glutamate was added to HT22 cells in the presence or absence of compound 11-001 (at 1 μM). […] Furthermore, all of the HT22 cells died in the absence of compound 11-001, and over 90% lived in the presence of compound 11-001.

JNK-3 = JNK-3 (Homo sapiens, UniProt P53779); test: Protein kinase panel screen: JNK-3; type: biochemical
Excerpt: (§1) A panel of 14 protein kinases was screened against compound 11-001. […] The phosphorylation of the other tested kinases was not altered.

JNK-1 = JNK-1 (Homo sapiens, UniProt P45983); test: Protein kinase panel screen: JNK-1; type: biochemical
Excerpt: as §1

JNK-2 = JNK-2 (Homo sapiens, UniProt P45984); test: Protein kinase panel screen: JNK-2; type: biochemical
Excerpt: as §1

p38 = p38 phosphorylation caused by glutamate in cells; type: cell-based; settings: HT22 cells and primary cortical neurons
Excerpt: as §1

JNK = JNK phosphorylation caused by glutamate in cells; type: cell-based; settings: HT22 cells and primary cortical neurons
Excerpt: as §1

[3] = tested on: HT22 cells and primary cortical neurons; test: Cell death caused by glutamate in HT22 cells and primary cortical neurons; type: cell-based
[4] = tested on: rat primary cortical neurons; test: Neuroprotective activity, rat primary cortical neurons cultured in serum-containing or serum-free medium; type: cell-based
Method: Primary cortical neurons are prepared from 18-day-old embryos of Sprague-Dawley rats as described (Liu and Schubert J. Neurochem. 69, 2285-2293 (1997) and J. Neurochem. 71, 2322-2329 (1998)). Briefly, the cerebral cortex is dissected out under an anatomical microscope and is freed of meninges and blood vessels. The cortex is cut into small pieces and is then dissociated by trypsin digestion and passed through a pipette tip. Dissociated neurons are suspended in various media and plated on polylysine-coated 35 mm tissue culture dishes (1×10^6 cells/dish). Several different culture conditions were used. Invention compounds were added to cell culture dishes. Cell survival was measure 2-7 days after compound administration.
The following serum-containing medium was used: minimal essential medium (Sigma) containing 30 mM glucose, 2 mM glutamine, 1 mM pyruvate, penicillin (100 U/ml), streptomycin (100 μg/ml), and 10% fetal calf serum. At a plating density of 1×10^6 cells/dish, most neurons die after one week of culture in this medium. If plated at a density of 2×10^6 cells/dish, then most neurons survive. Glia proliferate in this medium regardless of the initial cell density. Therefore the cell density-dependent neuronal survival in this system is most likely dependent on the neurotrophic factors secreted by the neurons, not by the glia. The results are the same when glial proliferation is inhibited by cytosine arabinoside.
A serum-free medium containing DMEM/F-12 plus N2 supplements (Invitrogen). When plated at a density of 1×10^6 cells/dish, almost all neurons die within three days. The cell death mechanisms in this culture medium are most likely to be oxidative stress and trophic factor deficiency.
A number of compounds according to the present invention were synthesized (using standard synthetic techniques) to explore the structure-activity relationships. The structures of exemplary invention compounds tested are provided herein. The structure-activity relationships of various compounds according to the present invention with rat primary cortical neurons cultured in serum-containing or serum-free medium are set forth in Table 1.

JNK-3, sequence (P53779 whole entry, species assumed): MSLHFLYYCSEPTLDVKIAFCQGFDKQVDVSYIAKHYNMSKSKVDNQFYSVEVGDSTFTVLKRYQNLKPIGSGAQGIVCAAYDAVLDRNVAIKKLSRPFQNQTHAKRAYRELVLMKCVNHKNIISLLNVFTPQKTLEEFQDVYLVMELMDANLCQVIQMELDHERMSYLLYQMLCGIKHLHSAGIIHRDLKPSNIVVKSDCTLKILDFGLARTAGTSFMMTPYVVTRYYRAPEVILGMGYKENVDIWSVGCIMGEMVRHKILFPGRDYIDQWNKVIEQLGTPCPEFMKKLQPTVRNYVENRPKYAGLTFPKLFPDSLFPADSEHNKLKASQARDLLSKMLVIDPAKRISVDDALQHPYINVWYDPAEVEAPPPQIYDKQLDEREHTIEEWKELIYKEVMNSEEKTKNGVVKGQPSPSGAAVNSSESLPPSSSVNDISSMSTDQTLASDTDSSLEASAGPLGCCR
JNK-1, sequence (P45983 whole entry, species assumed): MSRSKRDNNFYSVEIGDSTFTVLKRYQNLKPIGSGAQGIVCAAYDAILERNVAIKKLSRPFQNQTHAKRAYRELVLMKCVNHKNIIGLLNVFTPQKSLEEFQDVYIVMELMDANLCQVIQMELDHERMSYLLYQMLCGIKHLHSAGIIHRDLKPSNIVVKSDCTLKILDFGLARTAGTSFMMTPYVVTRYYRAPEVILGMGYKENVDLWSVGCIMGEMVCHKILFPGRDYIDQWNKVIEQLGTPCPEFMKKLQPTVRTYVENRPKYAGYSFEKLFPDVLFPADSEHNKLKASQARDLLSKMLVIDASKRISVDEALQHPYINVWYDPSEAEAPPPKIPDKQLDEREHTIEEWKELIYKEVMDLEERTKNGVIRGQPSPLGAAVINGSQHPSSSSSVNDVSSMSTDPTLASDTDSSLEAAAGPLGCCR
JNK-2, sequence (P45984 whole entry, species assumed): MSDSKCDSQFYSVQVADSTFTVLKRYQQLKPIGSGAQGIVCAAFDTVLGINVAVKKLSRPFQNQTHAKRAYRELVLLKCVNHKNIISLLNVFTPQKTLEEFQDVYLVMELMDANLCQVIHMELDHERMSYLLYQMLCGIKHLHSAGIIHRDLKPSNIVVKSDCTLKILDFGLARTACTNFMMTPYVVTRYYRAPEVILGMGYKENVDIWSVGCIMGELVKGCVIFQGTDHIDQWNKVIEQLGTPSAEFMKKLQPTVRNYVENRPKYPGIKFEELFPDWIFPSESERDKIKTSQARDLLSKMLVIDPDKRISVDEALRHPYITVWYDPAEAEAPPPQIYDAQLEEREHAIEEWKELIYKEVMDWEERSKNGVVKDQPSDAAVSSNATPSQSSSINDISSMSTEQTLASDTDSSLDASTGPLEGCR

Structure (SMILES): COc1cc(/C=C/c2cc(/C=C/c3ccc(O)c(OC)c3)n(-c3ccccc3)n2)ccc1O [Compound 11-001]
- Plasma 11-001 concentration ([1]; 0 hr after gavage): 0 µg/mL
- Time of maximum plasma concentration ([1]; 400 mg/kg by gavage): around 2 hr
- Plasma 11-001 concentration ([1]; 1 hr after gavage): 1.84 µg/mL
- Plasma 11-001 concentration ([1]; 2 hr after gavage): 2.30 µg/mL
- Plasma 11-001 concentration ([1]; 4 hr after gavage): 1.25 µg/mL
- Plasma 11-001 concentration ([1]; 6 hr after gavage): 0.67 µg/mL
- Brain 11-001 content ([2]; 0 hr after gavage): 0 μg/g brain
- Time of maximum brain concentration ([2]; 400 mg/kg by gavage): 1 h
- Oral absorption and passage of the blood-brain barrier ([2]; 400 mg/kg by gavage, mice): can be orally absorbed and traverse the blood-brain barrier
- Brain 11-001 content ([2]; 1 hr after gavage): 2.62 μg/g brain
- Brain 11-001 content ([2]; 2 hr after gavage): 1.28 μg/g brain
- Brain 11-001 content ([2]; 4 hr after gavage): 0.89 μg/g brain
- Brain 11-001 content ([2]; 6 hr after gavage): 0.95 μg/g brain
- HT22 cells that lived after glutamate (HT22 cells): over 90%
- Inhibition of kinase in panel of 14 protein kinases (JNK-3): partially inhibited
- Inhibition of kinase in panel of 14 protein kinases (JNK-1): None of the other enzymes that were assayed, including JNK-1 or JNK-2, were affected
- Inhibition of kinase in panel of 14 protein kinases (JNK-2): None of the other enzymes that were assayed, including JNK-1 or JNK-2, were affected
- Block of p38 phosphorylation caused by glutamate (p38): about 30%
- Block of JNK phosphorylation caused by glutamate (JNK): about 30%
- Effect on cell death [3]: inhibited cell death

Structure (SMILES): C(=C\c1cc(/C=C/c2ccccc2)n(-c2ccccc2)n1)/c1ccccc1 [Compound 22-020]
- Neuroprotective activity at 1 μM [4]: 0

Structure (SMILES): COc1ccc(/C=C/c2cc(/C=C/c3ccc(OC)cc3)n(-c3ccccc3)n2)cc1 [Compound 22-022]
- Neuroprotective activity at 1 μM [4]: 0

Structure (SMILES): COc1cccc(/C=C/c2cc(/C=C/c3cccc(OC)c3)n(-c3ccccc3)n2)c1 [Compound 22-024]
- Neuroprotective activity at 1 μM [4]: 0

Structure (SMILES): COc1ccc(/C=C/c2cc(/C=C/c3ccc(OC)c(OC)c3)n(-c3ccccc3)n2)cc1OC [Compound 22-026]
- Neuroprotective activity at 1 μM [4]: 0
